{
  "source": "patent US7722863B2",
  "about": "“Use of granzyme b as an hsp70/hsp70 peptide dependent inducer of apoptosis in tumor cells” (Multimmune GmbH, priority 2002, dated 2010)",
  "key": {"[1]": {"system": "Hsp70 membrane-negative Colo− tumor subline", "experiment": "Cell surface binding and uptake of granzyme B (fluorescence microscopy, flow cytometry)", "type": "cell-based, human", "conditions": "data not shown", "protocol": "(§1) Cells (0.5×10^6) were fixed in paraformaldehyde (1% PFA in PBS) for 10 min, and permeabilized in PBS containing BSA (0.5%), NaN3 (0.1%), and saponin (0.1%). Then permeabilized cells were incubated either with the granzyme B-phycoerythrin conjugated monoclonal antibody HC2-PE (IgG1; Hölzel Diagnosbka, Cologne, Germany) with an isotype-matched IgG1 control antibody, at 4° C. for 1 h, in the dark. Following washing cells were analysed on a FACSCalibur instrument (Becton Dickinson, Heidelberg, Germany).\n(§2) Stock solutions of camptothecin (4 mg/ml, Sigma, Munich, Germany) were diluted in DMSO and stored at 4° C. in the dark. Granzyme B (6 ng/ml, Hölzel Diagnostics, Cologne, Germany) solutions were freshly prepared directly before usage. Exponentially growing cells (0.5-1.5×10^6/ml) were incubated either with camptothecin at a final concentration of 4 μg/ml or with purified, enzymatically active granzyme B (10 ng/ml, 1 μg/ml, 2 μg/ml; 4 μg/ml) (Shi et. al. (2000) Methods in Enzymology 322, 125) for 10 min, and 30 min either at 4° C. or at 37° C. After washing in RPMI-1640 medium binding and uptake was determined in nonpermeabilized and permeabilized tumor cells by flow cytometry and fluorescence microscopy on a Axioscop 25 scanning microscope (Zeiss, Jena, Germany) equipped with a 40× objective and standard filters. Images were treated by multiplicative shading correction using the software Axiovison (Zeiss Vison, Jena, Germany). Granzyme B was visualized in red by using the HC2-PE antibody.\n(§3) The preceding findings posed the question whether membrane-bound Hsp70 might enable specific binding and entry of granzyme B into the cytosol. […] A light microscopical analysis of untreated CX+ and Colo+ cells (control) at 4° C. versus 37° C. is shown in the upper row of each panel (FIG. 2A). The corresponding immunofluorescence microscopy of the cells at 4° C. and 37° C. is illustrated below (control). […] (data not shown). […] (FIG. 2B, upper graph). […] However, even at the highest concentration of 4 μg/ml, granzyme B was internalized much more pronounced by Hsp70 membrane-positive as compared to Hsp70-negative tumor cells (CX−/Colo−). Potential ion channels formed by Hsp70 may play a role in the mechansim of selective granzyme B uptake in Hsp70 membrane-positive tumor cells. Indeed, a particular ion conductance pathway was observed after incorporation of vesicles derived from purified phospholipids of Hsp70 membrane-positive (CX+) tumor sublines. This was not seen in vesicles obtained from Hsp70 membrane-negative (CX−) tumor cells (data not shown)."}, "[2]": {"system": "Hsp70 membrane-negative CX− tumor subline", "experiment": "Cell surface binding and uptake of granzyme B (fluorescence microscopy, flow cytometry)", "type": "cell-based, human", "conditions": "data not shown", "protocol": "as §1, §2, §3"}, "[3]": {"system": "Hsp70 membrane-positive Colo+ tumor subline", "experiment": "Cell surface binding and uptake of granzyme B (fluorescence microscopy, flow cytometry)", "type": "cell-based, human", "protocol": "as §1, §2, §3"}, "[4]": {"system": "Hsp70 membrane-positive leukemic cell line K562", "experiment": "Annexin V-FITC apoptosis assay (flow cytometry)", "type": "cell-based", "conditions": "granzyme B", "protocol": "(§4) Exponentially growing tumor cells (day 1 after cell passage) were used for granzyme B, camptothecin treatment and as targets in cytotoxicity assays.\n(§5) Annexin V-FITC staining: Briefly, cells were washed twice in Hepes buffer containing 5 mM CaCl2 and incubated with Annexin V-FITC (Roche) for 10 min at room temperature. Annexin V-FITC positively stained cells were measured on a FACSCalibur flow cytometer (Becton Dickinson, Heidelberg, Germany).\nSimilarly, a 1.3-fold and a 2.4-fold increase in the amount of Annexin V-FITC positively stained Colo+ cells were observed after 12 h and 24 h, respectively. […] A comparative Annexin V-FITC staining pattern of CX+ and CX− cells treated with granzyme B for 24 h, is illustrated in FIG. 3B. […] The amount of Annexin V-FITC positively stained K562 cells increased from 8.7% up to 16% (1.8-fold)."}, "[5]": {"system": "Hsp70 membrane-positive CX+ tumor subline", "experiment": "Cell surface binding and uptake of granzyme B (fluorescence microscopy, flow cytometry)", "type": "cell-based, human"}, "[6]": {"system": "Hsp70 membrane-negative Colo− cells", "experiment": "Annexin V-FITC apoptosis assay (flow cytometry)", "type": "cell-based, human", "conditions": "12 h and 24 h; camptothecin 4 μg/ml or granzyme B 6 ng/ml", "protocol": "as §4, §2\n(§6) Apoptotic Cell Death was Determined after Incubation of Tumor Cells with 6 ng/ml Granzyme B for 4 h, 12 h, and 24 h at 37° C. and Washing in RPMI-1640 Medium by Different Apoptosis Assays, as Described Below. Apoptosis Assays\nas §5\n(§7) The preceding findings posed the question whether purified granzyme B can induce apoptosis of tumor cells that present Hsp70 on their cell surface. […] As a positive control for apoptosis all cell types were incubated with the topoisomerase inhibitor camptothecin at a concentration of 4 μg/ml. Apoptosis was determined by Annexin V-FITC staining measured by FACS (FACSCalibur, Becton Dickinson, Heidelberg, Germany), DAPI staining and mitochondrial cytochrome c release. Apoptosis was not detected in CX+ and CX− cells incubated with camptothecin (cam) or granzyme B (grB) for 4 h incubation (FIG. 3A). […] It appeared that the colon carcinoma sublines CX+/CX− are better protected towards a camptothecin-mediated cell death as compared to the pancreas carcinoma sublines Colo+/Colo−."}, "[7]": {"system": "Hsp70 membrane-positive CX+ cells", "experiment": "Annexin V-FITC apoptosis assay (flow cytometry)", "type": "cell-based, human", "conditions": "for apoptosis in CX+ cells / amount of Annexin V-FITC positively stained CX+ cells / fold increase of Annexin V-FITC positively stained CX+ cells: camptothecin 4 μg/ml or granzyme B 6 ng/ml; for fold increase of Annexin V-FITC positively stained CX+ cells: versus untreated", "protocol": "as §4, §2, §6, §5, §7"}, "[8]": {"system": "Hsp70 membrane-positive Colo+ cells", "experiment": "Annexin V-FITC apoptosis assay (flow cytometry)", "type": "cell-based, human", "conditions": "granzyme B 6 ng/ml", "protocol": "as §4, §2, §6, §5, §7"}, "[9]": {"system": "Hsp70 membrane-negative CX− cells", "experiment": "Annexin V-FITC apoptosis assay (flow cytometry)", "type": "cell-based, human", "conditions": "for apoptosis in CX− cells: camptothecin 4 μg/ml or granzyme B 6 ng/ml", "protocol": "as §4, §2, §6, §5, §7"}, "[10]": {"conditions": "1 μg/ml granzyme B, 30 min, 37° C."}, "[11]": {"conditions": "15 min at 4° C., granzyme B 2 μg/ml"}, "[12]": {"conditions": "temperature shift 4° C. to 37° C., 30 min"}},
  "data": [
    {"substance": "granzyme B", "values": [
      {"measurement": "granzyme B cell surface binding (immunofluorescence)", "setting": "[1]; 4° C.", "result": "either exhibited any granzyme B cell surface binding at 4 °C"},
      {"measurement": "granzyme B uptake (immunofluorescence)", "setting": "[1]; 37° C.", "result": "nor uptake at 37 °C"},
      {"measurement": "granzyme B cell surface binding (immunofluorescence)", "setting": "[2]; 4° C.", "result": "either exhibited any granzyme B cell surface binding at 4 °C"},
      {"measurement": "granzyme B uptake (immunofluorescence)", "setting": "[2]; 37° C.", "result": "nor uptake at 37 °C"},
      {"measurement": "granzyme B uptake, flow cytometry of permeabilized cells", "setting": "[3]; [10]", "result": "faint shift of the granzyme B peak to the right"},
      {"measurement": "granzyme B uptake, flow cytometry of permeabilized cells", "setting": "[3]; 2 μg/ml and 4 μg/ml granzyme B", "result": "dose-dependent increase in granzyme B uptake"},
      {"measurement": "granzyme B cell surface binding (immunofluorescence)", "setting": "[3]; [11]", "result": "typical cell surface staining, was detected"},
      {"measurement": "granzyme B uptake, cytoplasmic staining (immunofluorescence)", "setting": "[3]; [12]", "result": "resulted in uptake of granzyme B"},
      {"measurement": "amount of Annexin V-FITC positively stained K562 cells", "setting": "[4]; untreated 8.7%, data not shown", "result": 16, "unit": "%"},
      {"measurement": "fold increase of Annexin V-FITC positively stained K562 cells", "setting": "[4]; versus untreated", "result": 1.8, "unit": "fold"},
      {"measurement": "granzyme B uptake, flow cytometry of permeabilized cells", "setting": "[5]; [10]", "result": "faint shift of the granzyme B peak to the right"},
      {"measurement": "granzyme B uptake, flow cytometry of permeabilized cells", "setting": "[5]; 2 μg/ml and 4 μg/ml granzyme B", "result": "dose-dependent increase in granzyme B uptake"},
      {"measurement": "granzyme B cell surface binding (immunofluorescence)", "setting": "[5]; [11]", "result": "typical cell surface staining, was detected"},
      {"measurement": "granzyme B uptake, cytoplasmic staining (immunofluorescence)", "setting": "[5]; [12]", "result": "resulted in uptake of granzyme B"},
      {"measurement": "apoptosis in Colo− cells", "setting": "[6]", "result": "neither a 12 h nor a 24 h treatment with granzyme B induces apoptosis"},
      {"measurement": "apoptosis in CX+ cells", "setting": "[7]; 4 h incubation", "result": "not detected"},
      {"measurement": "amount of Annexin V-FITC positively stained CX+ cells", "setting": "[7]; 12 h, untreated 16.6%", "result": 20.9, "unit": "%"},
      {"measurement": "fold increase of Annexin V-FITC positively stained CX+ cells", "setting": "[7]; 12 h", "result": 1.3, "unit": "fold"},
      {"measurement": "apoptosis in CX+ cells", "setting": "[7]; 12 h and 24 h", "result": "apoptosis was observed"},
      {"measurement": "amount of Annexin V-FITC positively stained CX+ cells", "setting": "[7]; 24 h, untreated 18%", "result": 30.2, "unit": "%"},
      {"measurement": "fold increase of Annexin V-FITC positively stained CX+ cells", "setting": "[7]; 24 h", "result": 1.8, "unit": "fold"},
      {"measurement": "fold increase of Annexin V-FITC positively and PI negatively stained CX+ cells", "setting": "[7]; 24 h granzyme B, representative analysis FIG. 3B", "result": 1.7, "unit": "fold"},
      {"measurement": "amount of Annexin V-FITC positively and propidium iodide (PI) negatively stained CX+ cells", "setting": "[7]; 24 h granzyme B, representative analysis FIG. 3B, untreated control 18%", "result": 30, "unit": "%"},
      {"measurement": "fold increase in the amount of Annexin V-FITC positively stained Colo+ cells", "setting": "[8]; 12 h", "result": 1.3, "unit": "fold"},
      {"measurement": "fold increase in the amount of Annexin V-FITC positively stained Colo+ cells", "setting": "[8]; 24 h", "result": 2.4, "unit": "fold"},
      {"measurement": "apoptosis in CX− cells", "setting": "[9]; 4 h incubation", "result": "not detected"},
      {"measurement": "apoptosis in CX− cells", "setting": "[9]; 12 h and 24 h", "result": "neither a 12 h nor a 24 h treatment with granzyme B induces apoptosis"},
      {"measurement": "amount of apoptotic CX− cells before and after treatment", "setting": "[9]; 24 h granzyme B, FIG. 3B", "result": "remained unaltered"}
    ]}
  ]
}
